Legend:
Assay type in all cases: biochemical
Details in all cases: procedures of Example 14 (TR-FRET)
JNK1 = JNK1 (Homo sapiens (Human), UniProt P45983); experiment: JNK1 TR-FRET kinase assay (Example 14)
Protocol: (§1) 14.3. Active JNK 1, 2 and 3 TR-FRET Assay
(§2) (1) Assay buffer #1 with 0.0025% Tween and 1 mM DTT was prepared using JNK buffer stock solution.
(§3) (2) Assay buffer #2 with 0.025% BSA was prepared using the assay buffer #1.
(§4) (3) Test compound solution preparation: 5× compound solution was prepared using assay buffer #1 with 5% DMSO. The compound solution (10 μl/well) was added to a 384-well plate (Corning, Cat No. 3654).
(§5) (4) aJNK1, 2 or 3 preparation: aJNK stock (100 μg/ml) at −80° C. was thawed on ice and an aJNK (1.6 ng/ml) solution was prepared using assay buffer #2. The aJNK solution (20 μl/well) was added to the plate and the plate was shaken. The enzyme was incubated with the compound at RT for 10 min. (5) ATP/substrate solution preparation: ATP and substrate stocks were thawed on ice. 2.5×ATP/substrate (e.g., 25 μM or 2.5 mM ATP/50 nM EPIW-1) was prepared using assay buffer #1. The ATP/substrate (20 μl/well) was added to the plate and the plate was shaken. The plate was incubated at RT for 15 min. Note: In an exemplary assay, the final ATP concentration was about 1 mM. (6) EDTA preparation: 30 mM EDTA was prepared using 0.5M EDTA stock and assay buffer #1. The EDTA (10 μl/well) was added to the plate to quench the enzyme reaction and the plate was shaken well. (7) Detection reagent preparation: Eu-63 and SA-XL stocks were thawed on ice. 4× Eu-63/SA-XL (2 nM Eu-63/9.4 nM SA-XL) was prepared using JNK detection buffer. The Eu-63/SA-XL solution (20 μl/well) was added to the plate and the plate was shaken. The plate was incubated at RT for 1 hr before reading the plate on LJL using ratiometric method named HTRF.
(§6) 14.4. Coupled JNK 1, 2 and 3 TR-FRET Assay
(§7) (1) Assay buffer with 0.0025% Tween, 0.01% BSA, and 1 mM DTT was prepared using JNK buffer stock solution.
(§8) (2) Test compound solution preparation: 5× compound solution, including EDTA background, was prepared using assay buffer with 5% DMSO. The compound solution (10 μl/well) was added to a 384-well plate (Corning, Cat No. 3654).
(§9) (3) uJNK1,2, or 3 activation reaction preparation: uJNK activation solution was prepared using assay buffer (1.6 ng/ml MKK4, 1.6 ng/ml MKK7, 16 ng/ml uJNK, and 20 uM ATP final). The uJNK activation solution (35 μl/well) was added to the plate, the plate was shaken, and the reaction mixture was incubated with compound at 30° C. for 60 min. (4) c-Jun substrate solution preparation: 50 nM EPIW-1, c-Jun peptide, was prepared using assay buffer (15 nM final). The EPIW-1 solution (15 μl/well) was added to the plate, the plate was shaken and incubated at 30° C. for 60 min. (5) EDTA preparation: 30 mM EDTA was prepared using 0.5M EDTA stock and assay buffer. The EDTA (10 μl/well) was added to the plate to quench the enzyme reaction and the plate was shaken well. (6) Detection reagent preparation: Eu-73 and SA-XL stocks were thawed on ice. 4× Eu-73/SA-XL (2 nM Eu-73/9.4 nM SA-XL) were prepared using JNK detection buffer. The Eu-73/SA-XL solution (20 μl/well) was added to the plate. The plate was shaken and incubated at RT for 1 hr before reading the plate on LJL using ratiometric method named HTRF.

JNK2 = JNK2 (Homo sapiens (Human), UniProt P45984); experiment: JNK2 TR-FRET kinase assay (Example 14)
JNK2, sequence (P45984 whole entry, species assumed): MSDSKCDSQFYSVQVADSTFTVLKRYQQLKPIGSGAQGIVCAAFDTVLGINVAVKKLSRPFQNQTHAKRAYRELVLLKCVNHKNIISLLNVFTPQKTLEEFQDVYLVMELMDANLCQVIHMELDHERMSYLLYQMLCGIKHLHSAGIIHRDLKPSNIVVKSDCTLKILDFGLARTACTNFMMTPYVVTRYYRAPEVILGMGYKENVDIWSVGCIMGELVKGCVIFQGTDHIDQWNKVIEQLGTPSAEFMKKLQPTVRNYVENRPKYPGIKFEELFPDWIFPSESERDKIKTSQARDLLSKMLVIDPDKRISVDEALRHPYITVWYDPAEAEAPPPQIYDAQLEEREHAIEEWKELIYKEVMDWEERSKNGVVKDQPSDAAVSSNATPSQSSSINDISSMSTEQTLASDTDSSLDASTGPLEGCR
Protocol: as §1, §2, §3, §4, §5, §6, §7, §8, §9

JNK3 = JNK3 (Homo sapiens (Human), UniProt P53779); experiment: JNK3 TR-FRET kinase assay (Example 14)
JNK3, sequence (P53779 whole entry, species assumed): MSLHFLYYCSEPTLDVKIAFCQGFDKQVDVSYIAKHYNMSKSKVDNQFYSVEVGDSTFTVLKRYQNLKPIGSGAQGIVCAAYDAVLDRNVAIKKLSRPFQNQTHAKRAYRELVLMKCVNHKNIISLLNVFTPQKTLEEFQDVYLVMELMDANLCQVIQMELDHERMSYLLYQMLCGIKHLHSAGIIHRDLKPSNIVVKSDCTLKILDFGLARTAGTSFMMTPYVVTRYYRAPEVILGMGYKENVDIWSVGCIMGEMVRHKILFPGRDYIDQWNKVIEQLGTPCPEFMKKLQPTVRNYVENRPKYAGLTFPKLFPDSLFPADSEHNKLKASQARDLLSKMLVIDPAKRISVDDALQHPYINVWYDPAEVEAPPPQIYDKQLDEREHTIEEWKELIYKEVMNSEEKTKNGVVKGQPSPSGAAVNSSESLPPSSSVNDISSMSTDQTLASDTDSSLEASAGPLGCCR
Protocol: as §1, §2, §3, §4, §5, §6, §7, §8, §9

JNK1, sequence (P45983 other isoform, or with tags, fused parts or gaps isoform P45983-2, species assumed): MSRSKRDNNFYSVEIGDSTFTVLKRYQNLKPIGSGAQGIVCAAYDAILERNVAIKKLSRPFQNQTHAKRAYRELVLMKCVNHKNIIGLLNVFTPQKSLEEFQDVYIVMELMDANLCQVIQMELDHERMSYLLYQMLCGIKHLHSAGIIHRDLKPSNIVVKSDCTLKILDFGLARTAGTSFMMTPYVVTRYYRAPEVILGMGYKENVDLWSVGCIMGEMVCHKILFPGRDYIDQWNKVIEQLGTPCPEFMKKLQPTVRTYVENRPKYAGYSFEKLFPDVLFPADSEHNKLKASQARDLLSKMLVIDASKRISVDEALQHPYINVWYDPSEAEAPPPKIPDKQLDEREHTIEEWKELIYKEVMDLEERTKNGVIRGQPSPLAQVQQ

Compound | IC50 (JNK1) [µM] | IC50 (JNK2) [µM] | IC50 (JNK3) [µM]
Cc1nc(-c2sccc2NC(=O)Cc2cccc3ccccc23)n(C)n1 [N-(2-(1,3-dimethyl-1H-1,2,4-triazol-5-yl)thiophen-3-yl)-2-(naphthalen-1-yl)acetamide] | > 10 | > 50 | > 10
Cn1ncnc1-c1sccc1NC(=O)Cc1cccc2ccccc12 [N-(2-(1-methyl-1H-1,2,4-triazol-5-yl)thiophen-3-yl)-2-(naphthalen-1-yl)acetamide] | > 50 | > 50 | > 50
Cn1ccnc1-c1sccc1NC(=O)Cc1cccc2ccccc12 [N-(2-(1-methyl-1H-imidazol-2-yl)thiophen-3-yl)-2-(naphthalen-1-yl)acetamide] | > 10 | > 50 | > 10
Cn1ccc(-c2sccc2NC(=O)Cc2cccc3ccccc23)n1 [N-(2-(1-methyl-1H-pyrazol-3-yl)thiophen-3-yl)-2-(naphthalen-1-yl)acetamide] | > 10 | > 50 | > 10
COc1ccc(CC(=O)Nc2ccsc2-n2cncn2)cc1 [N-(2-(1H-1,2,4-triazol-1-yl)thiophen-3-yl)-2-(4-methoxyphenyl)acetamide] | > 10 | > 50 | > 10
O=C(Cc1cccc2ncccc12)Nc1ccsc1-c1nnc[nH]1 [N-(2-(1H-1,2,4-triazol-5-yl)thiophen-3-yl)-2-(quinolin-5-yl)acetamide] | 0.1 to 10 | 0.1 to 10 | 0.1 to 10
O=C(Cc1cccc2ccccc12)Nc1ccsc1-n1ccnc1 [N-(2-(1H-imidazol-1-yl)thiophen-3-yl)2-(naphthalen-1-yl)acetamide] | > 10 | > 50 | 0.1 to 10
O=C(CN1C(=O)CCc2ccccc21)Nc1ccsc1-c1c[nH]cn1 [N-(2-(1H-imidazol-4-yl)thiophen-3-yl)-2-(2-oxo-3,4-dihydroquinolin-1(2H)-yl)acetamide] | 0.1 to 10 | > 10 | 0.1 to 10
COc1ccc(CC(=O)Nc2ccsc2-c2c[nH]cn2)cc1 [N-(2-(1H-imidazol-4-yl)thiophen-3-yl)-2-(4-methoxyphenyl)-acetamide] | > 10 | > 50 | > 10
COc1ccc(CC(=O)Nc2ccsc2-n2cccn2)cc1 [N-(2-(1H-pyrazol-1-yl)thiophen-3-yl)-2-(4-methoxyphenyl)-acetamide] | > 10 | > 50 | > 10
O=C(Cc1cccc2cnccc12)Nc1ccsc1-c1csc(Cl)n1 [N-(2-(2-chlorothiazol-4-yl)thiophen-3-yl)-2-(isoquinolin-5-yl)acetamide] | 0.1 to 10 | > 10 | 0.1 to 10
Cc1nc(-c2sccc2NC(=O)CN2C(=O)CCc3ccccc32)c[nH]1 [N-(2-(2-methyl-1H-imidazol-4-yl)thiophen-3-yl)-2-(2-oxo-3,4-dihydroquinolin-1(2H)-yl)acetamide] | > 10 | > 50 | > 10

Next, values leading:

IC50 (JNK1) [µM] | IC50 (JNK2) [µM] | IC50 (JNK3) [µM] | Compound
0.1 to 10 | > 10 | 0.1 to 10 | COc1ccc(CC(=O)Nc2sccc2-c2nnn(C)n2)cc1 [2-(4-methoxyphenyl)-N-(3-(2-methyl-2H-tetrazol-5-yl)thiophen-2-yl)acetamide]
0.1 to 10 | 0.1 to 10 | 0.1 to 10 | COc1ccc(CC(=O)Nc2sccc2-c2noc(C)n2)cc1 [2-(4-methoxyphenyl)-N-(3-(5-methyl-1,2,4-oxadiazol-3-yl)thiophen-2-yl)acetamide]
0.1 to 10 | 0.1 to 10 | 0.1 to 10 | COc1ccc(CC(=O)Nc2scc(C)c2-c2nc(C)n[nH]2)cc1 [2-(4-methoxyphenyl)-N-(4-methyl-3-(3-methyl-1H-1,2,4-triazol-5-yl)thiophen-2-yl)acetamide]
< 0.1 | < 0.1 | < 0.1 | O=C(Cn1c(=O)ccc2cc(Br)ccc21)Nc1scc(Br)c1-c1nc[nH]n1 [2-(6-bromo-2-oxoquinolin-1(2H)-yl)-N-(4-bromo-3-(1H-1,2,4-triazol-3-yl)thiophen-2-yl)acetamide]
< 0.1 | < 0.1 | < 0.1 | O=C(Cn1c(=O)ccc2cc(Br)ccc21)Nc1scc(Cl)c1-c1nc[nH]n1 [2-(6-bromo-2-oxoquinolin-1(2H)-yl)-N-(4-chloro-3-(1H-1,2,4-triazol-3-yl)thiophen-2-yl)acetamide]
0.1 to 10 | 0.1 to 10 | 0.1 to 10 | O=C(CN1C(=O)CCc2ccc(Br)cc21)Nc1scc(Br)c1-c1ncn[nH]1 [2-(7-bromo-2-oxo-3,4-dihydroquinolin-1(2H)-yl)-N-(4-bromo-3-(1H-1,2,4-triazol-5-yl)thiophen-2-yl)acetamide]
< 0.1 | 0.1 to 10 | < 0.1 | O=C(Cc1cccc2ncsc12)Nc1scc(Br)c1-c1ncn[nH]1 [2-(benzo[d]thiazol-7-yl)-N-(4-bromo-3-(1H-1,2,4-triazol-5-yl)thiophen-2-yl)acetamide]
0.1 to 10 | > 10 | 0.1 to 10 | COc1nc(-c2sccc2NC(=O)Cc2cccc3cnccc23)cs1 [2-(isoquinolin-5-yl)-N-(2-(2-methoxythiazol-4-yl)thiophen-3-yl)acetamide]
0.1 to 10 | 0.1 to 10 | 0.1 to 10 | Cc1csc(-c2sccc2NC(=O)Cc2cccc3cnccc23)n1 [2-(isoquinolin-5-yl)-N-(2-(4-methylthiazol-2-yl)thiophen-3-yl)acetamide]
0.1 to 10 | 0.1 to 10 | 0.1 to 10 | Cc1cnc(-c2sccc2NC(=O)Cc2cccc3cnccc23)s1 [2-(isoquinolin-5-yl)-N-(2-(5-methylthiazol-2-yl)thiophen-3-yl)acetamide]
0.1 to 10 | 0.1 to 10 | 0.1 to 10 | O=C(Cc1cccc2cnccc12)Nc1ccsc1-c1ncco1 [2-(isoquinolin-5-yl)-N-(2-(oxazol-2-yl)thiophen-3-yl)acetamide]
0.1 to 10 | 0.1 to 10 | 0.1 to 10 | O=C(Cc1cccc2cnccc12)Nc1ccsc1-c1nccs1 [2-(isoquinolin-5-yl)-N-(2-(thiazol-2-yl)thiophen-3-yl)acetamide]
0.1 to 10 | 0.1 to 10 | 0.1 to 10 | O=C(Cc1cccc2cnccc12)Nc1ccsc1-c1cscn1 [2-(isoquinolin-5-yl)-N-(2-(thiazol-4-yl)thiophen-3-yl)acetamide]
0.1 to 10 | 0.1 to 10 | 0.1 to 10 | O=C(Cc1cccc2cnccc12)Nc1scnc1-c1cnccn1 [2-(isoquinolin-5-yl)-N-(4-(pyrazin-2-yl)thiazol-5-yl)acetamide]
0.1 to 10 | > 10 | 0.1 to 10 | O=C(Cc1cccc2ccccc12)Nc1ccsc1-c1nnco1 [N-(2-(1,3,4-oxadiazol-2-yl)thiophen-3-yl)-2-(naphthalen-1-yl)acetamide]
0.1 to 10 | 0.1 to 10 | 0.1 to 10 | COc1ccc(CC(=O)Nc2ccsc2-c2ncn[nH]2)cc1 [N-(2-(1H-1,2,4-triazol-5-yl)thiophen-3-yl)-2-(4-methoxyphenyl)acetamide]
0.1 to 10 | 0.1 to 10 | 0.1 to 10 | O=C(Cc1cccc2ccccc12)Nc1ccsc1-c1ncn[nH]1 [N-(2-(1H-1,2,4-triazol-5-yl)thiophen-3-yl)-2-(naphthalen-1-yl)acetamide]
